# Source: patent publication US8852657B2, “Chromones as therapeutic agents” (Unigen, Inc., priority 2007, dated 2014)
# “Also recorded” adds a separate entry of the source.
# Key:
# [1] = test system: C57BL/6J mice fed high fat diet; assay: Intraperitoneal glucose tolerance test, high-fat diet induced model (UP394/UP396); type: in vivo, mouse; details: day 18; times 60, 90 and 120 minutes; p<0.05; GW1929 5 mg/kg, UP396 100 mg/kg intraperitoneally
# Description: A high-fat diet induced animal model was developed and used for evaluation of potential therapeutic effects of chromone extracts. The C57BL/6J is a clinically relevant animal model that can be used in studies on metabolic disorders, pathophysiology of impaired glucose tolerance and for development of novel therapeutic agents (Ahren et al. (2004) Diabetes 53 (Supplement 3):S215-S219; Laakso et al. (2004) Diabetes Care 27:2253-2259; Kahn et al. (2004) Diabetes 53:3274-3285; Scheurink et al. (1998) European J Endo. 139:461-467; Yuan et al. (2002) Diabetes 51:1851-1858; Reitman et al. (2005) Endocrinology 145:3258-3264; Vlassara et al. (2005) Diabetes 54:2314-2319; Cawthome et al. (2002) Molecular and Cellular Proteomics 1:509-516). Methodology of model induction was first explained by Surwit et al. in 1988 (Diabetes, 37:1163-1167). […] Blood glucose, cholesterol, and triglyceride were monitored every week for 12 weeks as described previously. […]
# An intraperitoneal glucose tolerance test was conducted using the C57BL/6J mice as described in Example 12 at a dose of 2 g/kg on day 18 of treatment with intraperitoneal administration of GW1929 (5 mg/kg), UP394 (100 mg/kg), UP396 (100 mg/kg) and vehicle. […] Blood glucose levels were measured at time 0, 30, 60, 90, and 120 minutes. […]
# db/db mice = assay: Weekly fasting glucose levels in db/db mice; type: in vivo, mouse; details: GW1929 5 mg/kg, N931 375 mg/kg
# Method: Fasting glucose levels of male db/db mice (8 mice in each group) treated with GW1929 (5 mg/kg), N931 (375 mg/kg) and vehicle were measured weekly. Animals were provided with T2018 rodent diet ad libitum except when fasting. Animals were fasted overnight before measurements were taken.
# [2] = Body weight, UP780 dose-range study; type: in vivo, mouse; details: GW1929 5 mg/kg, Qmatrix 400 mg/kg, UP780 100, 200 and 400 mg/kg; weekly
# Method: (§1) Once an induction of the disease on animals after 8 weeks of high fat diets was confirmed by monitoring of selected parameters, daily oral treatment was initiated. On each day, the test articles and the positive control GW1929 (Tocris Bioscience, Ellisville, Mo., Batch #2A/58705) were dissolved in 0.5% methylcellulose (Sigma, St. Louise Mo., Lot#116H0857) and delivered at an oral dose of 100, 200 and 400 mg/kg of UP780 (Lot # L1806QMAW-01); 400 mg/kg of Qmatrix® Aloe vera gel powder (QM400, Lot# G6319103-L3) as well as 5 mg/kg of GW1929. As GW1929 was not completely solublized in methylcellulose, it was first dissolved in DMSO (Sigma, St. Louis, Mo., Batch#064K0067). The final concentration of test compounds, including the vehicle, was then adjusted to contain 5% DMSO before drug administration. The carrier vehicle treated animals received 0.5% methylcellulose only. No detectable sign of irritation was observed after each drug or vehicle administration.
# (§2) As described on Example 12, male C57BL/6J mice were purchased from Jackson Laboratories (Bar Harbor, Me.) at 6 weeks of age. […]
# Three or four male C57BL/6J mice were housed in a mouse cage that had sections for feed and water. Feed intake was determined daily by measuring the difference between previously weighed high fat pellets value and what was left on the given day. […]
# diabetic animal models = details: administered orally; Brown et al. (1999), Way et al. (2001); cited from earlier work
# [3] = test system: high fat diet induced C57BL/6J mice; assay: Fasting triglyceride, UP780 dose-range study; type: in vivo, mouse; details: after 7 weeks of daily oral treatment; GW1929 5 mg/kg
# Method: as §1, §2
# Fasting blood glucose, total cholesterol and triglyceride levels were measured using 15-20 μl of blood obtained from tail vein. […]
smiles,measurement,setting,value
"CN(CCOc1ccc(C[C@H](Nc2ccccc2C(=O)c2ccccc2)C(=O)O)cc1)c1ccccn1 [GW1929, N-(2-Benzoylphenyl)-O-[2-(methyl-2-pyridinylamino)ethyl]-L-tyrosine]",glucose utilization in intraperitoneal glucose tolerance test compared to vehicle,[1],Significant glucose utilization
same,course of fasting glucose level during 10-week treatment,db/db mice; starting from week 5,maintain the glucose levels at the baseline level
same,fasting blood glucose levels compared to vehicle,"db/db mice; weeks 6, 7, 9 and 10, P<0.05",significantly lower
same,body weight gain difference between groups,[2],no significant body weight gain or feed consumption differences; also recorded: No statistically significant body weight gain difference
same,"glucose, fatty acids and triglyceride levels",diabetic animal models,"decreases glucose, fatty acids and triglyceride levels"
same,percent reduction of fasting triglyceride level to vehicle,[3],22.7%
